Results from patent EP2902382A1, “Primary hydroxylamines and uses thereof” (Fundació Institut de Recerca Biomèdica IRB (Barcelona), priority 2014, dated 2015).
≈ marks a conversion by molar mass, not a printed value. Structures can show the parent of a compound that is named as a salt. Where two headings read alike, the source gives them in different places.

Legend:
Staphylococcus aureus = experiment: Minimum inhibitory concentration (MIC), microtiter broth dilution method; type: cell-based, Staphylococcus aureus ATCC 12600 (CECT 86); conditions: read-out: MIC (minimum inhibitory concentration)
[1] = system: murine macrophage J774 cell line; experiment: Cytotoxicity, MTT colorimetric cell viability assay; type: cell-based; conditions: Mus musculus, J774 macrophages, 24 and 48 h of exposure (time not given), read-out: Cytoxicity (IC50)
Bacillus anthracis = experiment: microbe, parasite or virus in culture; type: cell-based, Bacillus anthracis Sterne 7700 pXO1-/pXO2-; conditions: 9 h, read-out: MIC (minimum inhibitory concentration)
Pseudomonas aeruginosa = experiment: Minimum inhibitory concentration (MIC), microtiter broth dilution method; type: cell-based, Pseudomonas aeruginosa ATCC 15692 (CECT 4122); conditions: read-out: MIC (minimum inhibitory concentration)
P. aeruginosa = experiment: Capacity to inhibit the formation of bacterial biofilms; type: cell-based; conditions: 37°C for 48 h without agitation, viable count (cfu/ml), Fig. 1
Enterococcus faecalis = experiment: Minimum inhibitory concentration (MIC), microtiter broth dilution method; type: cell-based, Enterococcus faecalis ATCC 19433 (CECT 481); conditions: TSB broth, 37°C for 9 h, mean of triplicates
S. aureus = type: cell-based
Staphylococcus epidermis = experiment: Minimum inhibitory concentration (MIC), microtiter broth dilution method; type: cell-based, Staphylococcus epidermidis ATCC 1798 (CECT 231); conditions: TSB broth, 37°C for 9 h, mean of triplicates
[2] = TSB broth, 37°C for 9 h, mean of triplicates

Row | Structure (SMILES) | MIC (Staphylococcus aureus; 9 h) [µM] | IC50 [1] [µM] | MIC (Bacillus anthracis) [µM] | MIC (Pseudomonas aeruginosa; 9 h) [µM] | MIC (Staphylococcus aureus; [2]) [µM] | MIC (Pseudomonas aeruginosa; [2]) [µM] | biofilm formation (P. aeruginosa) | MIC (Enterococcus faecalis) [µM] | biofilm formation (S. aureus) | MIC (Staphylococcus epidermis) [µM]
1 | ONCc1ccccc1 [Comp 7, N-Benzyl-hydroxylamine hydrochloride, reference compound] | > 4000 | > 4000 | > 4000 | > 4000 |  |  |  |  |  | 
2 | COc1cccc(OC)c1CNO [Comp 8, N-(2,6-Dimethoxybenzyl)-hydroxylamine, reference compound] |  |  | > 4000 |  | > 4000 | > 4000 |  |  |  | 
3 | ONCCc1ccccc1 [Example 1, N-phenethyl-hydroxylamine] |  | 1890 | 250 to 500 (≈ 34.3 to 68.6 µg/mL) |  | 250 to 500 (≈ 34.3 to 68.6 µg/mL) | 500 to 1000 (≈ 68.6 to 137 µg/mL) | inhibit | 1000 to 2000 (≈ 137 to 274 µg/mL) | inhibit | 
4 | ONCC1CCCCC1 [Example 2, N-cyclohexylmethyl-hydroxylamine] |  | 1330 | 250 to 500 (≈ 32.3 to 64.6 µg/mL) |  | 250 to 500 (≈ 32.3 to 64.6 µg/mL) | 125 to 250 (≈ 16.2 to 32.3 µg/mL) | inhibit | 500 to 1000 (≈ 64.6 to 129 µg/mL) | inhibit | 250 to 500 (≈ 32.3 to 64.6 µg/mL)
5 | ONCc1ccc(F)cc1 [Example 3, N-(4-fluorobenzyl)-hydroxylamine] |  | 1300 | 125 to 625 (≈ 17.6 to 88.2 µg/mL) |  | 500 to 1000 (≈ 70.6 to 141 µg/mL) | 1000 to 2000 (≈ 141 to 282 µg/mL) | inhibit | 500 to 1000 (≈ 70.6 to 141 µg/mL) | inhibit | 125 to 250 (≈ 17.6 to 35.3 µg/mL)
6 | COc1ccc(CNO)c(OC)c1 [Example 4, N-(2,4-dimethoxybenzyl)-hydroxylamine] |  | 2270 | 125 to 250 (≈ 22.9 to 45.8 µg/mL) |  | 500 to 1000 (≈ 91.6 to 183 µg/mL) | 1000 to 2000 (≈ 183 to 366 µg/mL) | inhibit | 500 to 1000 (≈ 91.6 to 183 µg/mL) | inhibit | 125 to 250 (≈ 22.9 to 45.8 µg/mL)
7 | COc1ccc(CNO)c(C)c1 [Example 5, N-(4-methoxy-2-methylbenzyl)-hydroxylamine] |  | 2180 | 125 to 625 (≈ 20.9 to 105 µg/mL) |  | > 4000 | 1000 to 2000 (≈ 167 to 334 µg/mL) |  | 250 to 500 (≈ 41.8 to 83.6 µg/mL) |  | 250 to 500 (≈ 41.8 to 83.6 µg/mL)
8 | ONCc1cc(C(F)(F)F)cc(C(F)(F)F)c1 [Example 6, N-(3,5-bis-trifluoromethylbenzyl)-hydroxylamine] |  | 2070 | 125 to 625 (≈ 32.4 to 162 µg/mL) |  | 250 to 500 (≈ 64.8 to 130 µg/mL) | 1000 to 2000 (≈ 259 to 518 µg/mL) |  | 500 to 1000 (≈ 130 to 259 µg/mL) |  | 125 to 250 (≈ 32.4 to 64.8 µg/mL)
